Measurements reported in patent US5654427A, “Indolocarbazole derivatives to treat a pathological condition of the prostate” (Kyowa Hakko Kogyo Co., Ltd., priority 1995, dated 1997).
Where two headings read alike, the source gives them in different places.

Experiments:
[1] = test system: DU-145; assay: growth inhibition of DU-145 prostate cancer cells (calcein fluorescence); type: cell-based; details: Homo sapiens, DU-145, 72 h, read-out: DU-145 C50
Procedure: (§1) Throughout the experiment the Tsu-Pr1 and Du-Pro1 cells were maintained in RPMI 1640 medium (GIBCO) containing 10% fetal bovine serum (Hyclone), 2 mM glutamine, 100 U/ml penicillin, and 100 μg/ml streptomycin. The PC-3 cells were maintained in Ham's F12K medium (Irvine Scientific) containing 10% fetal bovine serum (Hyclone), 2 mM glutamine, 100 U/ml penicillin, and 100 μg/ml streptomycin. All cell lines were maintained at 37° C. in a humidified atmosphere containing 5% CO2. The DU-145 cells were maintained in minimal essential medium (Gibco), containing 10% fetal bovine serum (Hyclone), 2 mM glutamine, and no antibiotics.
(§2) Tests for growth inhibition by the candidate compounds were conducted by the following procedure. In each well of a 96-well plate (Falcon) were placed 2,500 cells in 0.1 ml of medium. The cultures were incubated overnight after which a 0.1 ml aliquot of culture medium was added to each well. […] Other control wells received medium without any K-252a derivative compounds. Incubation was continued for three days. On day three the number of cells in each well was measured using a calcein fluorescence assay (Bozyczko-Coyne et al. J. Neurosci. Meth. 50, 205-216 (1993)).
(§3) Calcein AM (Molecular Probes, Eugene, Oreg.), an analog of the viable dye fluorescein diacetate, is taken up by cells and cleaved intracellularly to fluorescent salts that are retained by intact membranes of viable cells. This method thus provides a reliable and quantitative measurement of cell survival. Calcein AM was diluted 2× in Dulbeccos phosphate buffered saline (D-PBS) to 2× the final assay concentration (6 μM) and 100 μl was added to culture wells containing 100 μl of medium. The plates were then incubated for 1 hour at 37° C. Cells were then washed 4 times with D-PBS to remove excess calcein not taken up by cells. The plate was read using a Millipore plate reading fluorimeter (Cytofluor 2350) at emission=485 nm and excitation=538 nm. After subtraction of blank values (wells containing medium but no cells), relative fluorescent values reflect a quantitative measurement of cell survival.
(§4) The number of cells in the wells containing functional derivatives was compared to the number of cells in the control wells. The concentration which inhibited cell growth by 50% was calculated and is referred to as the "IC50 ".

[2] = test system: Du-Pro1; assay: growth inhibition of Du-Pro1 prostate cancer cells (calcein fluorescence); type: cell-based; details: Homo sapiens, 72 h, read-out: Du-Pro1 IC50
Procedure: as §1, §2, §3, §4

[3] = test system: Dunning R-3327 AT-2.1 prostate tumor; assay: inhibition of growth of Dunning R-3327 AT-2.1 prostate tumor in adult male Copenhagen rats; type: in vivo, rat; details: 3 mg/kg/day s.c.
Source text: The AT-2 tumor is a highly anaplastic cell line derived from the original slow-growing androgen-dependent Dunning R-3327 H rat prostate tumor (Issacs et al., Prostate 9:261-281, 1986). The AT-2 tumor model has been used to characterize other potential anti-prostatic cancer agents including linomide (Ichikawa et al., Cancer Research 52:3022-3028, 1992) and suramin (Morton et al., Prostate 17:327-336, 1990) which is undergoing evaluation in clinical trials for androgen-independentprostate cancer (Eisenberger et al., J. Natl. Can. Inst. 85: 611-621, 1993).
Experimental Protocol: Twenty-four inbred male Copenhagen rats were inoculated subcutaneously in the flank with 1×10^6 viable AT-2.1 tumor cells. All animals were allowed to develop tumors of approximately 2.7 cm^3 in size (approximately 14 days) before being randomized into three groups of 8 animals each. Group 1 received daily subcutaneous injections of vehicle alone (1 ml/kg body weight). […] All animals had their tumor sizes evaluated for a period of 16 days. Tumor volume was calculated using the formula (1×w^2)×0.5.

[4] = target: T1, trkA (Rattus norvegicus, UniProt P35739); assay: inhibition of NGF-stimulated trk autophosphorylation (tyrosine phosphorylation) in PC12 cells, anti-phosphotyrosine Western blot; type: cell-based; details: for trk 100 nM (inhibition of phosphorylation) / trk 500 nM (inhibition of phosphorylation): NGF 50 ng/ml; for trk 500 nM (inhibition of phosphorylation): 500 nM compound; for trk 100 nM (inhibition of phosphorylation): key: +: Inhibited phosphorylation; -: Did not inhibit phosphorylation; for trk 500 nM (inhibition of phosphorylation): key: +: Inhibited phosphorylation; -: Did not inhibit phosphorylation
T1 construct: are rat pheochromocytoma cells that bear trkA; host or cells: PC12 rat pheochromocytoma cells
T1 sequence (P35739 33-799): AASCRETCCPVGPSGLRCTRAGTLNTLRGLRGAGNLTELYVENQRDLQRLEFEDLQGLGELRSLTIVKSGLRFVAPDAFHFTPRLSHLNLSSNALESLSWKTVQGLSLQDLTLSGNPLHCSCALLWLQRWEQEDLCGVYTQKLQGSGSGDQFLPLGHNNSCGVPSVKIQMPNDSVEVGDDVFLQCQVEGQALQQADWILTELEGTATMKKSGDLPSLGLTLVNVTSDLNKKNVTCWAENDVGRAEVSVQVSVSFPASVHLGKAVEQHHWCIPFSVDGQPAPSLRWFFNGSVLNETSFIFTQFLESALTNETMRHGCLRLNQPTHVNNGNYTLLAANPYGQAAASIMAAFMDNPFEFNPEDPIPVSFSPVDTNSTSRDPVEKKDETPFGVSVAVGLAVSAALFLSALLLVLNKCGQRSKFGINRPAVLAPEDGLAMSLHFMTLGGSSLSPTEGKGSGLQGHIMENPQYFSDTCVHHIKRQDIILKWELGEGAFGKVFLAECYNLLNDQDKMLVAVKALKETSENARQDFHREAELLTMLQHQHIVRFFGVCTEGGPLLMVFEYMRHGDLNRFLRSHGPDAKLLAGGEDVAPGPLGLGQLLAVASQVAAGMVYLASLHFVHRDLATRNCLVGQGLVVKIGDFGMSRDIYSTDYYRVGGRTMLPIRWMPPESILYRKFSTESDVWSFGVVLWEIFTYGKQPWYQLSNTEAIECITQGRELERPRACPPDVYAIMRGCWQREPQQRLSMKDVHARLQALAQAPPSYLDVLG
Procedure: Candidate compounds for the inhibition of prostate cell proliferation were selected according to their ability to inhibit the tyrosine kinase activity associated with the trks.
PC12 cells (ATCC #CRL1721) are rat pheochromocytoma cells that bear trkA and differentiate into sympathetic neurons when treated with NGF. […] Cells were incubated at 37° C. in a humidified atmosphere of 10% CO2 and 90% air. […] The cells in each culture were disrupted and cell lysates were prepared by standard techniques known to those skilled in the art. Each lysate was incubated with anti-trk antibody whereby immune complexes were formed. […] The immune complexes were collected on Protein A-Sepharose beads, separated by SDS-polyacrylamide gel electrophoresis (SDS-PAGE), and transferred to polyvinylidene difluoride (PVDF) membranes (Millipore Corp., Bedford, Mass.), using techniques well known to those skilled in the art. The membranes were incubated with anti-phosphotyrosine antibody, which binds to the tyrosine phosphorylated trks, but not to the un-phosphorylated form of trks. Proteins bound to anti-phosphotyrosine antibody were visualized with enhanced chemiluminescence (ECL, Amersham), and are shown as dark "spots" in FIG. 1.
Measurement of the autophosphorylation of trk provides a good index of trk tyrosine kinase activity, and thereby of trk stimulation.
Inhibition was indicated by the absence of a spot migrating with the trk marker shown at the left side of the figure. Partial inhibition was indicated by a spot of reduced size.

[5] = test system: Tsu-Pr1; assay: growth inhibition of Tsu-Pr1 prostate cancer cells (calcein fluorescence); type: cell-based; details: Homo sapiens, TSU-Pr1, 72 h, read-out: Tsu-Pr1 IC50
Procedure: as §1, §2, §3, §4

[6] = test system: androgen independent human prostate cancer cell lines Tsu-Pr1, DuPro-1, PC-3 and DU-145; assay: growth inhibition of prostate cancer-derived cell lines, overall (calcein fluorescence); type: cell-based; details: Table 3
Procedure: as §1, §2
Calcein AM (Molecular Probes, Eugene, Oreg.), an analog of the viable dye fluorescein diacetate, is taken up by cells and cleaved intracellularly to fluorescent salts that are retained by intact membranes of viable cells. This method thus provides a reliable and quantitative measurement of cell survival. Calcein AM was diluted 2× in Dulbeccos phosphate buffered saline (D-PBS) to 2× the final assay concentration (6 μM) and 100 μl was added to culture wells containing 100 μl of medium. The plates were then incubated for 1 hour at 37° C. Cells were then washed 4 times with D-PBS to remove excess calcein not taken up by cells. The plate was read using a Millipore plate reading fluorimeter (Cytofluor 2350) at emission=485 nm and excitation=538 nm. After subtraction of blank values (wells containing medium but no cells), relative fluorescent values reflect a quantitative measurement of cell survival. […]

Row | SMILES | trk 100 nM (inhibition of phosphorylation) ([4]; 100 nM compound) | trk 500 nM (inhibition of phosphorylation) [4] | further results
1 | COC(=O)C1(O)CC2OC1(C)n1c3ccccc3c3c4c(c5c6cc(O)ccc6n2c5c31)C(=O)NC4 (stereo not drawn) [Compound I-5] | + |  | IC50 [1]: 80 nM; IC50 [2]: 60 nM; inhibiting growth of AT-2.1 tumors ([3]; approximately): 50-60%; Tumor volume Day 0 ([3]; vehicle 2.73 ± 0.50): 2.70 ± 1.06 cm^3; Tumor volume Day 3 ([3]; vehicle 6.66 ± 1.48): 5.64 ± 1.32 cm^3; Tumor volume Day 8 ([3]; vehicle 21.0 ± 3.0): 10.7 ± 2.9 cm^3; Tumor volume Day 13 ([3]; vehicle 37.3 ± 4.0): 19.8 ± 5.6 cm^3; Tumor volume Day 16 ([3]; vehicle 58.7 ± 5.0): 24.6 ± 6.2 cm^3; IC50 [5]: 70 nM; potency in inhibiting prostate cell line growth, in words [6]: most potent compounds in inhibiting growth in all four cell lines
2 | C[S+]([O-])CC1(O)CC2OC1(C)n1c3ccccc3c3c4c(c5c6ccccc6n2c5c31)C(=O)NC4 (stereo not drawn) [Compound I-8] | - | + | IC50 ([5]; 3 days incubation): 540 nM
3 | CN(C)CC1(O)CC2OC1(C)n1c3ccccc3c3c4c(c5c6ccccc6n2c5c31)C(=O)NC4 (stereo not drawn) [Compound I-16] | + |  | IC50 ([5]; 3 days incubation): 210 nM
4 | CC[S+]([O-])Cc1ccc2c(c1)c1c3c(c4c5cc(C[S+]([O-])CC)ccc5n5c4c1n2C1CC(O)(C(=O)OC)C5(C)O1)CNC3=O (stereo not drawn) [Compound I-66] | - | + | 
5 | CC12OC(CC1(O)CO)n1c3ccc(Br)cc3c3c4c(c5c6cc(Br)ccc6n2c5c31)CNC4=O (stereo not drawn) [Compound I-42] | + | + | IC50 ([5]; 3 days incubation): 90 nM
6 | CC12OC(CC1O)n1c3ccccc3c3c4c(c5c6ccccc6n2c5c31)CNC4=O (stereo not drawn) [Compound I-3] | + |  | 
7 | C=CCn1c2ccccc2c2c3c(c4c5ccccc5n(CC=C)c4c21)C(=O)NC3 [II-1] | - | + | 
8 | COC(=O)C1(O)CC2OC1(C)n1c3ccccc3c3c4c(c5c6cc(CSc7nc[nH]n7)ccc6n2c5c31)C(=O)NC4 (stereo not drawn) [Compound I-72] | - | + | 
9 | O=C1NCc2c1c1c3ccccc3n(CCCO)c1c1c2c2ccccc2n1CCCO [II-4] |  | + | 
10 | CC12OC(CC1=O)n1c3ccccc3c3c4c(c5c6ccccc6n2c5c31)CNC4=O (stereo not drawn) [Compound I-52] | + |  | 
11 | CC12OC(CC1(O)CN=[N+]=[N-])n1c3ccccc3c3c4c(c5c6ccccc6n2c5c31)CNC4=O (stereo not drawn) [Compound I-21] | - | + | 
12 | CC12OC(CC1(O)CSC1O[C@H](CO)[C@@H](O)[C@H](O)[C@H]1O)n1c3ccccc3c3c4c(c5c6ccccc6n2c5c31)CNC4=O (stereo partly drawn) [Compound I-20] | - | + | phosphorylation response (FIG. 1, spot) ([4]; 100 nM compound, NGF, Western blot FIG. 1): somewhat diminished (a smaller spot was seen); IC50 ([5]; 3 days incubation): 5700 nM
13 | COC(=O)C1(O)CC2OC1(C)n1c3ccccc3c3c4c(c5c6ccccc6n2c5c31)C(=O)NC4=O (stereo not drawn) [Compound I-22] | + |  | IC50 ([5]; 3 days incubation): 690 nM

Continued, in another order:

Row | trk 100 nM (inhibition of phosphorylation) ([4]; 100 nM compound) | trk 500 nM (inhibition of phosphorylation) [4] | SMILES | further results
14 | + |  | CN1CC2(CC3OC2(C)n2c4ccccc4c4c5c(c6c7ccccc7n3c6c42)C(=O)NC5)OC1=O (stereo not drawn) [Compound I-15] | IC50 ([5]; 3 days incubation): 510 nM
15 | + |  | CC12OC(CC1(O)C=NO)n1c3ccccc3c3c4c(c5c6ccccc6n2c5c31)CNC4=O (stereo not drawn) [Compound I-28] | 
16 | + |  | CC(=O)NCC1(O)CC2OC1(C)n1c3ccccc3c3c4c(c5c6ccccc6n2c5c31)C(=O)NC4 (stereo not drawn) [Compound I-24] | 
17 | + | + | COC(=O)C1(O)CC2OC1(C)n1c3ccccc3c3c4c(c5c6cc(C=NN7CCOCC7)ccc6n2c5c31)C(=O)NC4 (stereo not drawn) [Compound I-74] | 
18 | - | + | CC12OC(CC1(O)C(=O)Nc1ccccc1)n1c3ccccc3c3c4c(c5c6ccccc6n2c5c31)CNC4=O (stereo not drawn) [Compound I-33] | 
19 | - | + | COC(=O)C1(O)CC2OC1(C)n1c3ccccc3c3c4c(c5c6cc(C[S+]([O-])c7ccccn7)ccc6n2c5c31)C(=O)NC4 (stereo not drawn) [Compound I-64] | 
20 | + | + | COC(=O)C1(O)CC2OC1(C)n1c3ccccc3c3c4c(c5c6cc(C=NN7CCCC7)ccc6n2c5c31)C(=O)NC4 (stereo not drawn) [Compound I-69] | 
21 | + |  | CC12OC(CC1(O)CNC(=O)CN)n1c3ccccc3c3c4c(c5c6ccccc6n2c5c31)CNC4=O (stereo not drawn) [Compound I-32] | 
22 | + |  | CNC(=O)C1(O)CC2OC1(C)n1c3ccccc3c3c4c(c5c6ccccc6n2c5c31)C(=O)NC4 (stereo not drawn) [Compound I-54] | 
23 | + |  | CC12OC(CC1(O)C=NNC(N)=O)n1c3ccccc3c3c4c(c5c6ccccc6n2c5c31)CNC4=O (stereo not drawn) [Compound I-14] | 
24 | + | + | COC(=O)C1(O)CC2OC1(C)n1c3ccccc3c3c4c(c5c6cc(C=NNC(=N)N)ccc6n2c5c31)C(=O)NC4 (stereo not drawn) [Compound I-73] | 
25 |  | + | CSCC1(O)CC2OC1(C)n1c3ccccc3c3c4c(c5c6ccccc6n2c5c31)C(=O)NC4 (stereo not drawn) [Compound I-56] | 
